From ChEMBL document CHEMBL4725227, “Dual-Target Inhibitors Based on HDACs: Novel Antitumor Agents for Cancer Therapy” (J Med Chem, 2020) come the findings set out here.

The target in experiment [1] is T1, Bromodomain-containing protein 4 (Homo sapiens, UniProt O60885). The experiment is described as follows: Inhibition of BRD4 (unknown origin).
Experiment [2] addresses T2, Histone deacetylase 1 (Homo sapiens, UniProt Q13547). Nature of the experiment: Inhibition of HDAC1 (unknown origin).
Experiment [3] deals with Histone deacetylase. Nature of the experiment: Inhibition of HDAC (unknown origin). In kind it is protein assay, Homo sapiens.
For experiment [4], the target named is T3, Epidermal growth factor receptor (Homo sapiens, UniProt P00533). Nature of the experiment: Inhibition of EGFR (unknown origin).
For experiment [5], the system named is MDA-MB-468. Nature of the experiment: Cytotoxicity against human MDA-MB-468 cells assessed as reduction in cell viability by MTT assay. It is filed as functional, cell-based. A general note: Formazan colour is commonly taken as a measure of viable cells.
Experiment [6] has as its system KG-1. Nature of the experiment: Cytotoxicity against human KG-1 cells assessed as reduction in cell viability by MTT assay. It is filed as functional, cell-based.
For experiment [7], the system named is HeLa. Nature of the experiment: Cytotoxicity against human HeLa cells assessed as reduction in cell viability by MTT assay. In kind it is functional, cell-based.
In experiment [8] the test system is HT-29. The experiment is described as follows: Cytotoxicity against human HT-29 cells assessed as reduction in cell viability by MTT assay. In kind it is functional, cell-based.
Experiment [9] deals with MDA-MB-231. Nature of the experiment: Cytotoxicity against human MDA-MB-231 cells assessed as reduction in cell viability by MTT assay. In kind it is functional, cell-based.
The subject of experiment [10] is DU-145. The experiment is described as follows: Cytotoxicity against human DU-145 cells assessed as reduction in cell viability. It is filed as functional, cell-based.
In experiment [11] the test system is MCF7. Nature of the experiment: Cytotoxicity against human MCF7 cells assessed as reduction in cell viability. It is filed as functional, cell-based.
For experiment [12], the target named is T1, Bromodomain-containing protein 4. The experiment is described as follows: Inhibition of BRD4 BD2 domain (unknown origin).
For experiment [13], the system named is OCI-AML-3. The experiment is described as follows: Antiproliferative activity against human OCI-AML-3 cells by MTT assay. It is filed as functional, cell-based.
Experiment [14] has as its system THP-1. The experiment is described as follows: Growth inhibition of human THP-1 cells. It is filed as functional.
In experiment [15] the test system is MV4-11. The experiment is described as follows: Antiproliferative activity against human MV4-11 cells by MTT assay. It is filed as functional, cell-based.
Experiment [16] relates to OCI-AML2. The experiment is described as follows: Antiproliferative activity against human OCI-AML2 cells by MTT assay. It is filed as functional, cell-based.
Experiment [17] relates to MCF7. Nature of the experiment: Cytotoxicity against human MCF7 cells assessed as reduction in cell viability by MTT assay. It is filed as functional, cell-based.
For experiment [18], the system named is A-431. The experiment is described as follows: Cytotoxicity against human A-431 cells assessed as reduction in cell viability by MTT assay. It is filed as functional, cell-based.
Experiment [19] has as its system A549. The experiment is described as follows: Cytotoxicity against human A549 cells assessed as reduction in cell viability by MTT assay.
Experiment [20] relates to MCF7. Nature of the experiment: Cytotoxicity against human MCF7 cells assessed as reduction in cell viability in presence of SAHA by MTT assay. It is filed as functional, cell-based.
The target in experiment [21] is Vascular endothelial growth factor receptor 2 (Homo sapiens, UniProt P35968). Nature of the experiment: Inhibition of VGFR2 (unknown origin).
Experiment [22] concerns the target Histone deacetylase 3 (Homo sapiens, UniProt O15379). The experiment is described as follows: Inhibition of recombinant human HDAC3 expressed in baculovirus expression system using Ac-Lys-Tyr-Lys (epsilon-acetyl)-AMC as substrate after 24 hrs by fluorescence assay.
The target in experiment [23] is T2, Histone deacetylase 1. The experiment is described as follows: Inhibition of recombinant human HDAC1 expressed in baculovirus expression system using Ac-Lys-Tyr-Lys (epsilon-acetyl)-AMC as substrate after 24 hrs by fluorescence assay.
Experiment [24] deals with Protein deacetylase HDAC6 (Homo sapiens, UniProt Q9UBN7). The experiment is described as follows: Inhibition of recombinant human HDAC6 expressed in baculovirus expression system using Ac-Lys-Tyr-Lys (epsilon-acetyl)-AMC as substrate after 24 hrs by fluorescence assay.
Experiment [25] addresses Receptor tyrosine-protein kinase erbB-2 (Homo sapiens) (UniProt P04626). Nature of the experiment: Inhibition of HER2 (unknown origin) at 10 ug/ml using biotinylated peptide as substrate in presence of ATP relative to control. As to conditions: dose 10.0 µg/ml.
Experiment [26] deals with T3, Epidermal growth factor receptor. The experiment is described as follows: Inhibition of GST-tagged EGFR (unknown origin) at 10 ug/ml using biotinylated peptide as substrate in presence of ATP relative to control. The note with it: dose 10.0 µg/ml.

As a reminder, the IC50 is the concentration that inhibits the measured activity by half. What is called GI50 is the concentration that inhibits growth by half. By inhibition is commonly meant the change of the read-out against control, counted positive when it falls.

T3 sequence (P00533 whole entry): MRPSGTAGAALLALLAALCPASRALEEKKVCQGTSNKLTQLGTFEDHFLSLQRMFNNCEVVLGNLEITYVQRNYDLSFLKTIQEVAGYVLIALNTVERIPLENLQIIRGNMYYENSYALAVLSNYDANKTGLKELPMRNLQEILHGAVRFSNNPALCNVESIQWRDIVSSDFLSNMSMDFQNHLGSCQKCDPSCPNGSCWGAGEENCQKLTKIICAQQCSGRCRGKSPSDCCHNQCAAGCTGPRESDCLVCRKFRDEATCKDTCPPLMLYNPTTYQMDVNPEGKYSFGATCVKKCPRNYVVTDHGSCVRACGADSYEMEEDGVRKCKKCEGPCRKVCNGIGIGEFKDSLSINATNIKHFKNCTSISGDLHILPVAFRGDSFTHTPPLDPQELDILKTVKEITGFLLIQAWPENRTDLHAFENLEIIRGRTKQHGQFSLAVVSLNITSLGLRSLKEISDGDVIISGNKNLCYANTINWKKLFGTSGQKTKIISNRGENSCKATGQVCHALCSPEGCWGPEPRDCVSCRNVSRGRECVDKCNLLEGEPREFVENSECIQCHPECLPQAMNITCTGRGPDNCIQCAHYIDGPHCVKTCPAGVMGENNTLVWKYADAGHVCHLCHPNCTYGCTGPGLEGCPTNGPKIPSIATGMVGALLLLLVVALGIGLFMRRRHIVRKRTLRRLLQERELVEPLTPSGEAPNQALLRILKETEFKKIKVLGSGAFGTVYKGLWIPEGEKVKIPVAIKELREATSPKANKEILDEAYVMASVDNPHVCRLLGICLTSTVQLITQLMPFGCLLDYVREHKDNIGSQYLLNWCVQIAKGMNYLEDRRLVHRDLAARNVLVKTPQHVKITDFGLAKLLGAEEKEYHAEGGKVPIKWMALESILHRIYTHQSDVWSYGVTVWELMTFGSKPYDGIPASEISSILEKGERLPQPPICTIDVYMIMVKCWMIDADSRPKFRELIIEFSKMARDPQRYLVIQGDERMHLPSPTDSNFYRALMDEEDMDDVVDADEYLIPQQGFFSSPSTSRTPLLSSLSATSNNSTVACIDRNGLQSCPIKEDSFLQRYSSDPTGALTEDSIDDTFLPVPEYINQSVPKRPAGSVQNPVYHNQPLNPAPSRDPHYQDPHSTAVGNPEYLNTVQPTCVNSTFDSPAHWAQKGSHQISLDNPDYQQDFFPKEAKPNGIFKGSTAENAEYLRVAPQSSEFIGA
T2 sequence (Q13547 whole entry): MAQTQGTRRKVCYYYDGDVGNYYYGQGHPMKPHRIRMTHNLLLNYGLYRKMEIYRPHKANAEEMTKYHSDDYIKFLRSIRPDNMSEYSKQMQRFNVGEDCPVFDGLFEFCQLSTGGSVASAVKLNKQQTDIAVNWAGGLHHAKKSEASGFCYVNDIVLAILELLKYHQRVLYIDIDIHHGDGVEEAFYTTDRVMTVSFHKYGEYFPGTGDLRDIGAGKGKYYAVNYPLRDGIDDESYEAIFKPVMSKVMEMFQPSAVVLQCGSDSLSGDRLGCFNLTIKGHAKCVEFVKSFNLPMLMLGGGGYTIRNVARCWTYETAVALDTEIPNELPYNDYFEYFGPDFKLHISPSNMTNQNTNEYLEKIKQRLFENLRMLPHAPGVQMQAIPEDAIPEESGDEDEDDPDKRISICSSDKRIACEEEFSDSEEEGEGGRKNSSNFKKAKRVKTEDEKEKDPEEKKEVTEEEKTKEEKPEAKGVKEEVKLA
Chain of Histone deacetylase 3 (O15379 whole entry): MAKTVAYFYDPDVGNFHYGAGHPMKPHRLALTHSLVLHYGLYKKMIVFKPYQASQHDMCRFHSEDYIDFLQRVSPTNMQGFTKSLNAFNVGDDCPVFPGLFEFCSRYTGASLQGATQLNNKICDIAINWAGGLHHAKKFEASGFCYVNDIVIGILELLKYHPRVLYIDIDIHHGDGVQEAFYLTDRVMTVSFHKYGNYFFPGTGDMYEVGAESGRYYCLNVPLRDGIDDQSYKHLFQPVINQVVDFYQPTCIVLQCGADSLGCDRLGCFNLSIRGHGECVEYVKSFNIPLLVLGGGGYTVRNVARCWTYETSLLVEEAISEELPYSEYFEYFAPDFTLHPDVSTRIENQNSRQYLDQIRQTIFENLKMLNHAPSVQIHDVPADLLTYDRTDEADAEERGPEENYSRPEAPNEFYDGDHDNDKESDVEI
Chain of Vascular endothelial growth factor receptor 2 (P35968 whole entry): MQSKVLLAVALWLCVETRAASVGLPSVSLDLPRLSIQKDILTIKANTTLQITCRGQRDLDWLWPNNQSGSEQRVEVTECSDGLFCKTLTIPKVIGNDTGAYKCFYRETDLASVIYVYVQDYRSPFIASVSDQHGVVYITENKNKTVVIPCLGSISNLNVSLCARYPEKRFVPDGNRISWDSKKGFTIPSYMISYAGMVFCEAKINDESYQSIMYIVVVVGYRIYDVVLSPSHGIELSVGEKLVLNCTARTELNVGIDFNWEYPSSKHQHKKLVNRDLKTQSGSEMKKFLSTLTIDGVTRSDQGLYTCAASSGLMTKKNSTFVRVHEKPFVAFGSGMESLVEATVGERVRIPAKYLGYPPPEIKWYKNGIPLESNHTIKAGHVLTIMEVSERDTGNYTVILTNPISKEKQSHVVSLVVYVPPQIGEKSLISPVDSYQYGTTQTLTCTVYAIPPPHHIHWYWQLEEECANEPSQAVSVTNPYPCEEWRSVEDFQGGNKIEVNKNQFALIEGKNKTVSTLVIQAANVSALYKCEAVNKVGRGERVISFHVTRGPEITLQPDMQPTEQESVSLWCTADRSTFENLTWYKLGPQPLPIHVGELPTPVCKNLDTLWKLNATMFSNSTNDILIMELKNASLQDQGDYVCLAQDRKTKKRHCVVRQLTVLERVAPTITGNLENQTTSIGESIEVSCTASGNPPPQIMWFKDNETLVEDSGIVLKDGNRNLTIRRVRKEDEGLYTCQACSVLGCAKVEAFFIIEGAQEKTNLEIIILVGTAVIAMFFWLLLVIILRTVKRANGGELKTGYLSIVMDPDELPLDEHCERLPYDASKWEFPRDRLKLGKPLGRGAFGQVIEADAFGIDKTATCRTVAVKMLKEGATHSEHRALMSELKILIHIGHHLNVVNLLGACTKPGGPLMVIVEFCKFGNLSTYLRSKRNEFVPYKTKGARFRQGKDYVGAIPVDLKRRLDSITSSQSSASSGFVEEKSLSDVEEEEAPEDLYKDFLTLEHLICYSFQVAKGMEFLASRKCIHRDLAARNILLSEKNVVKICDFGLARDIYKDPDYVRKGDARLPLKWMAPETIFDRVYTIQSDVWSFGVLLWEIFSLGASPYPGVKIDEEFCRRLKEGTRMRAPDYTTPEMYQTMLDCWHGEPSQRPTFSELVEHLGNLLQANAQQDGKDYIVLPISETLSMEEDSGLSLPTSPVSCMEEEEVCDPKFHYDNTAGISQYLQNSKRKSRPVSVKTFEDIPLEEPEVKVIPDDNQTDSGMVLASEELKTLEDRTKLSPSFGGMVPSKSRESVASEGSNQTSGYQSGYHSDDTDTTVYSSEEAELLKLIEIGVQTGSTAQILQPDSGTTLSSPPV
Chain of Protein deacetylase HDAC6 (Q9UBN7 whole entry): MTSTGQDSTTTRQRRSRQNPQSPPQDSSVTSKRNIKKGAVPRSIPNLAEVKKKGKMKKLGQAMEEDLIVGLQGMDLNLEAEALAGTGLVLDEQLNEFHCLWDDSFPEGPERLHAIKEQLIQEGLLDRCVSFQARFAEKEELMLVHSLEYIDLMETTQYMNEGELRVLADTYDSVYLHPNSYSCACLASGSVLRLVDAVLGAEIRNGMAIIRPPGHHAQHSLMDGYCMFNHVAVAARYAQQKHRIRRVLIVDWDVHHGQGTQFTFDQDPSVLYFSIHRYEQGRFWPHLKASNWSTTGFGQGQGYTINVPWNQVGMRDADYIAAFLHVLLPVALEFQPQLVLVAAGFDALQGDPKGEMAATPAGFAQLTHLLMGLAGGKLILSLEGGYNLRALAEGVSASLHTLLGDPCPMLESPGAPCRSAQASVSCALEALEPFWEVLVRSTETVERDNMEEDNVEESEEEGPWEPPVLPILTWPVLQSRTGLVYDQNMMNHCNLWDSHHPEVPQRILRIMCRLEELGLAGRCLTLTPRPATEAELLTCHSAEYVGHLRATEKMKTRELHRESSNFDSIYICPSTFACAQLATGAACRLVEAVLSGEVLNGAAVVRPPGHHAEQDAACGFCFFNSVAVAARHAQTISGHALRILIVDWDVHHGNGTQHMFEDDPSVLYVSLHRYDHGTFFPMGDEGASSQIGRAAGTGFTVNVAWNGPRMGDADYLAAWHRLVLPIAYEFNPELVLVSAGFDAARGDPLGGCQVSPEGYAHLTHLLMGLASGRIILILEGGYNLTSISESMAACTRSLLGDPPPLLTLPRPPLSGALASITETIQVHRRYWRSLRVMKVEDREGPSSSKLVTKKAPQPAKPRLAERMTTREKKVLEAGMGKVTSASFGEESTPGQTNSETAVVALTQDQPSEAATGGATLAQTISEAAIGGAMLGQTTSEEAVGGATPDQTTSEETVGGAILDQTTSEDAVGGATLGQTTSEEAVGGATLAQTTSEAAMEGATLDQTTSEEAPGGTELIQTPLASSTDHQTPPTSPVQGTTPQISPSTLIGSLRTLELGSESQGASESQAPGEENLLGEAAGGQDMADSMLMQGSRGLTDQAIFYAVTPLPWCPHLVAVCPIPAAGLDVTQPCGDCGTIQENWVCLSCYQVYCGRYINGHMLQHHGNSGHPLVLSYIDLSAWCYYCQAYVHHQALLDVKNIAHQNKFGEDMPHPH

Take `O=C(CCCCOc1ccccc1C(=O)Nc1cccc2[nH]cnc12)NO`: the 50% inhibitory concentration (IC50) in experiment [1] was 260 nM; in experiment [2] it was 150 nM; in experiment [3] it was 2700 nM.

As for `O=C(CCCCCCC(=O)Nc1ccccc1)NO` [VORINOSTAT], in [4], the half-maximal inhibitory concentration (IC50) came to 900 nM.

With `Cn1cc(-c2ccnc(Nc3ccc(C(=O)NCCCCCCC(=O)NO)cc3)n2)c2ccccc21`, the half-maximal inhibitory concentration (IC50) was 230 nM in experiment [5]; 240 nM in [6]; 5700 nM in [4]; 1850 nM in experiment [7]; 790 nM in [8]; “<= 1 uM” in experiment [3]. In addition, the concentration for half-maximal inhibition (IC50) in experiment [9] is 600 nM.

As for `Cc1noc(C)c1-c1ccc2c(c1)c(Cc1ccc(F)cc1)cn2CCCCCCC(=O)NO`, the 50% inhibitory concentration (IC50) in experiment [1] was found to be 670 nM; in experiment [2], 150 nM.

For the molecule `Cc1ccccc1OS(=O)(=O)C1CC2OC1C(c1ccc(NC(=O)CCCCCCC(=O)NO)cc1)=C2c1ccc(O)cc1` (centres undefined), the concentration for half-maximal inhibition (IC50) in experiment [10] is above 100000 nM; in experiment [2] it was 22 nM; in experiment [11], 7900 nM.

For `COc1cc(OC)c2c(=O)[nH]c(-c3cc(C)c(OCCCCC(=O)NO)c(C)c3)nc2c1`, the values for the concentration for half-maximal inhibition (IC50) in experiment [1] and in experiment [2] were 670 nM and 150 nM, respectively.

As to `COc1cc(OC)c2c(=O)[nH]c(-c3ccc(OCCCC(=O)NO)cc3)nc2c1`, the IC50 was determined as 225 nM in experiment [12]; 1090 nM in experiment [13]; 1670 nM in experiment [15]; 32 nM in experiment [3]; 1520 nM in experiment [16]. Moreover, the 50% growth inhibitory concentration (GI50) in experiment [14] is 15500 nM.

With `COc1cc2/c(=N/c3ccc(Br)cc3F)nc[nH]c2cc1OCC1CCN(C)CC1` [VANDETANIB], the half-maximal inhibitory concentration (IC50) in [17] was 18500 nM.

Regarding `C#Cc1cccc(Nc2ncnc3cc(OCCOC)c(OCCOC)cc23)c1` [ERLOTINIB], the IC50 in experiment [18] was determined as 1410 nM; in [19] it was 11800 nM; in experiment [20] it was 2700 nM.

Take `Cc1noc(C)c1-c1cc(NC(=O)CCCCCC(=O)NO)cc(C(=O)c2ccccc2)c1`: the figures for the half-inhibitory concentration (IC50) in experiment [1] and in experiment [2] were 670 nM and 150 nM, respectively.

For the molecule `COc1cc2ncnc(Nc3ccc(Br)cc3)c2cc1OCCCCCC(=O)NO`, the values for the 50% inhibitory concentration (IC50) in experiment [17], in experiment [3] and in experiment [21] were 850 nM, 2.2 nM and 74 nM, respectively.

For `CC(=O)N1c2ccc(-c3ccc(NC(=O)CCCCCCC(=O)NO)cc3)cc2[C@H](NC(=O)OC(C)C)C[C@@H]1C`, it took 150 nM to reach half-maximal inhibition in [2] (IC50).

With `COCCOc1cc2ncnc(Nc3ccc(/C=C/C(=O)NO)cc3)c2cc1OCCOC`, the IC50 in experiment [22] was 180 nM; in experiment [23] it was 160 nM; in experiment [24] it was 560 nM. For the same molecule, the inhibition is 84% in [25] and 70% in experiment [26].
